Measurements published in PMC8693618 (Bioorganic & medicinal chemistry, 2021).
Where two headings read alike, the source gives them in different places.

What was measured:
[1] = PAMPA passive permeability; assay type: in vitro ADME
human PANK3 = human PANK3 (Homo sapiens, UniProt Q9H999); settings: tested up to 10 μM
[2] = passive permeability; previously determined ref 8; cited from earlier work
Plasma Protein [3] = settings: rat; previously determined ref 8; cited from earlier work
Plasma Protein [4] = settings: mouse; previously determined ref 8; cited from earlier work
Caco2 = settings: previously determined ref 8; cited from earlier work
[5] = mouse, rat, and human plasma; previously determined ref 8; cited from earlier work
Plasma Protein [6] = settings: human; previously determined ref 8; cited from earlier work

Chain of human PANK3 (Q9H999 whole entry): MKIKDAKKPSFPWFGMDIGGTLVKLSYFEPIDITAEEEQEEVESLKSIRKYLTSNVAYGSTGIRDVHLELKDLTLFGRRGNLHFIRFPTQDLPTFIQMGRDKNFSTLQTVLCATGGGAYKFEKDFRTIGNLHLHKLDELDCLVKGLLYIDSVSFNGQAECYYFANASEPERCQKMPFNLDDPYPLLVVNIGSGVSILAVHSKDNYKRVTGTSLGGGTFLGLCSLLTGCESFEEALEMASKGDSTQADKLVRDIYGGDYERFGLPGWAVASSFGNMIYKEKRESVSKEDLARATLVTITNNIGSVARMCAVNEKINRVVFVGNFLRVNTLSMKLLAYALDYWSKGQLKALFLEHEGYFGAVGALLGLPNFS

CC(C)(C)c1ccc(NC(=O)N2CCN(c3ccc(C#N)cn3)CC2)cc1 [Compound 1, N-(4-(tert-butyl)phenyl)-4-(5-cyanopyridin-2-yl) piperazine-1-carboxamide]
PAMPA [1]: 1232 1 × 10^−6 cm/s

CCc1ccc(NC(=O)N2CCN(c3ccc(C#N)cn3)CC2)cc1 [Compound 3, 4-(5-cyanopyridin-2-yl)-N-(4-ethylphenyl)piperazine-1-carboxamide]
PANK3 inhibitory activity in words (human PANK3): did not show activity

CCCCc1ccc(NC(=O)N2CCN(c3ccc(C#N)cn3)CC2)cc1 [Compound 8, N-(4-butylphenyl)-4-(5-cyanopyridin-2-yl)piperazine-1-carboxamide]
PANK3 inhibitory activity in words (human PANK3): did not show activity

N#Cc1ccc(N2CCN(C(=O)Nc3ccc(Br)cc3)CC2)nc1 [Compound 14, N-(4-bromophenyl)-4-(5-cyanopyridin-2-yl)piperazine-1-carboxamide]
PANK3 inhibitory activity in words (human PANK3): inactive

N#Cc1ccc(N2CCN(C(=O)Nc3ccc(C(F)(F)F)cc3)CC2)nc1 [Compound 18, 4-(5-cyanopyridin-2-yl)-N-(4-(trifluoromethyl)phenyl)piperazine-1-carboxamide]
PANK3 inhibitory activity in words (human PANK3): inactive

CC(C)c1ccc(C(=O)N2CCN(c3ccc(C#N)cn3)CC2)cc1 [Compound 28, 6-(4-(4-isopropylbenzoyl)piperazin-1-yl) nicotinonitrile]
PANK3 inhibitory activity in words (human PANK3): complete loss of activity

CC(C)c1ccc(C(=O)CN2CCN(c3ccc(C#N)cn3)CC2)cc1 [Compound 32, 6-(4-(2-(4-isopropylphenyl)-2-oxoethyl)piperazin-1-yl)nicotinonitrile]
PANK3 inhibitory activity in words (human PANK3): loss of activity

CC(C)c1ccc(NC(=O)N2CCN(c3ccc(C#N)nn3)CC2)cc1 [Compound 56, 4-(6-cyanopyridazin-3-yl)-N-(4-isopropylphenyl) piperazine-1-carboxamide]
PAMPA [1]: 316 1 × 10^−6 cm/s

CC(C)c1ccc(CC(=O)N2CCN(c3ccc(C#N)nn3)CC2)cc1 [Compound 57, 6-(4-(2-(4-isopropylphenyl)acetyl)piperazin-1-yl) pyridazine-3-carbonitrile]
PAMPA [2]: 413 1 × 10^−6 cm/s | Plasma Protein Binding (Plasma Protein [3]): 91% | Plasma Protein Binding (Plasma Protein [4]): 92% | Caco2 Permeability A/B (Caco2): 30.2 ×10⁻⁶ cm/s | Plasma Stability T1/2 [5]: >48 h | Plasma Protein Binding (Plasma Protein [6]): 93%
